# In ChEMBL document CHEMBL5500332, “Structure-based approaches for the design of 6-aryl-1-(3,4,5-trimethoxyphenyl)-1H-benzo[d][1,2,3]triazoles as tubulin polymerization inhibitors” (Eur J Med Chem, 2024):
# pIC50: −log10 of the molar value. Activity calls are given as the source filed them. The calls are words filed in the database; no cut-off is given here.
# What was measured:
# MCF7 [1] = assay: Antiproliferative activity against human MCF7 cells measured after 72 hrs by MTT assay; assay type: functional, cell-based; details: MCF7, 72 h
# SGC-7901 = assay: Antiproliferative activity against human SGC-7901 cells measured after 72 hrs by MTT assay; assay type: functional, cell-based; details: SGC-7901, 72 h
# A549 = assay: Antiproliferative activity against human A549 cells measured after 72 hrs by MTT assay; assay type: functional, cell-based; details: A549, 72 h
# Tubulin (Homo sapiens) = Tubulin (Homo sapiens) (UniProt P68371+Q9H4B7+P0DPH7+P68366+Q13509+Q71U36+P04350+Q3ZCM7+P07437+P68363+Q9BQE3+Q6PEY2+Q13885+Q9BVA1+Q9BUF5); assay: Inhibition of tubulin polymerization (unknown origin) at 3 uM measured every 60 secs for 90 mins by microplate reader based analysis; assay type: protein-complex assay
# 4T1 = assay: Antitumor activity against mouse 4T1 cells xenografted in BALB/c mouse model assessed as tumor growth inhibition rate at 10 mg/kg, iv measured every two days for 2 weeks relative to control; assay type: functional; details: 4T1, 336 h, read-out: TGI
# MCF7 [2] = assay: Induction of cell cycle arrest in human MCF7 cells assessed as accumulation of cells at G0/G1 phase at 15 nM incubated for 24 hrs by PI staining based flow cytometry analysis (reference value: 69.67%); assay type: functional
# MCF7 [3] = assay: Induction of cell cycle arrest in human MCF7 cells assessed as accumulation of cells at G0/G1 phase at 30 nM incubated for 24 hrs by PI staining based flow cytometry analysis (reference value: 69.67%); assay type: functional
# MCF7 [4] = assay: Induction of cell cycle arrest in human MCF7 cells assessed as accumulation of cells at S phase at 15 nM incubated for 24 hrs by PI staining based flow cytometry analysis (reference value: 14.58 %); assay type: functional
# MCF7 [5] = assay: Induction of cell cycle arrest in human MCF7 cells assessed as accumulation of cells at S phase at 30 nM incubated for 24 hrs by PI staining based flow cytometry analysis (reference value: 14.58%); assay type: functional
# MCF7 [6] = assay: Induction of cell cycle arrest in human MCF7 cells assessed as accumulation of cells at G2/M phase at 15 nM incubated for 24 hrs by PI staining based flow cytometry analysis (reference value: 14.36%); assay type: functional
# MCF7 [7] = assay: Induction of cell cycle arrest in human MCF7 cells assessed as accumulation of cells at G2/M phase at 30 nM incubated for 24 hrs by PI staining based flow cytometry analysis (reference value: 14.36%); assay type: functional
pIC50 (MCF7 [1]),pIC50 (SGC-7901),pIC50 (A549),Compound,further results
5.51,5.50,< 5.00,COc1cc(-n2nnc3ccc(-c4ccc([N+](=O)[O-])cc4)cc32)cc(OC)c1OC,–
6.67,6.39,5.61,COc1cc(-n2nnc3ccc(-c4cccc(C)c4)cc32)cc(OC)c1OC,–
6.14,5.97,5.19,COc1cc(OC)cc(-n2nnc3ccc(-c4ccc(OC)c(O)c4)cc32)c1,–
5.13,5.53,5.14,COc1cc(-n2nnc3ccc(-c4cccc(F)c4)cc32)cc(OC)c1OC,–
5.90,6.10,5.67,COc1cc(-n2nnc3ccc(-c4ccc(F)cc4)cc32)cc(OC)c1OC,–
7.04,6.05,5.97,COc1cc(-n2nnc3ccc(-c4ccc(C)cc4F)cc32)cc(OC)c1OC,–
6.46,6.73,5.41,COc1ccc(-c2ccc3nnn(-c4ccc(OC)c(OC)c4)c3c2)cc1O,–
5.64,5.83,5.35,COc1cc(-n2nnc3ccc(-c4cccc(Cl)c4)cc32)cc(OC)c1OC,–
5.49,5.71,5.19,COc1ccccc1-c1ccc2nnn(-c3cc(OC)c(OC)c(OC)c3)c2c1,–
6.62,5.74,5.70,COc1cc(-n2nnc3ccc(-c4ccccc4)cc32)cc(OC)c1OC,–
–,–,–,CC(=O)O[C@H]1C(=O)[C@@]2(C)[C@H]([C@H](OC(=O)c3ccccc3)[C@]3(O)C[C@H](OC(=O)[C@H](O)[C@@H](NC(=O)c4ccccc4)c4ccccc4)C(C)=C1C3(C)C)[C@]1(OC(C)=O)CO[C@@H]1C[C@@H]2O [PACLITAXEL],inhibition (Tubulin (Homo sapiens)): inactive; inhibition in vivo at 10 mg/kg (4T1): 72.1%
5.48,5.09,5.16,COc1cccc(-c2ccc3nnn(-c4cc(OC)c(OC)c(OC)c4)c3c2)c1,–
6.67,6.35,5.85,COc1ccc(-c2ccc3nnn(-c4cc(OC)c(OC)c(OC)c4)c3c2)cc1,–
5.82,5.84,5.43,COc1cc(-n2nnc3ccc(-c4ccc(Cl)cc4)cc32)cc(OC)c1OC,–
5.08,< 5.00,5.57,CCOc1ccc(-c2ccc3nnn(-c4cc(OC)c(OC)c(OC)c4)c3c2)cc1,–
5.18,5.55,< 5.00,COc1cc(-n2nnc3ccc(-c4ccc(Cl)cc4Cl)cc32)cc(OC)c1OC,–
7.38,7.35,6.68,COc1ccc(-c2ccc3ncn(-c4cc(OC)c(OC)c(OC)c4)c3c2)cc1O,–
6.48,6.28,5.86,COc1cc(-n2nnc3ccc(-c4ccc(C)cc4)cc32)cc(OC)c1OC,–
6.59,5.92,5.45,COc1cc(-n2nnc3ccc(-c4cccc(O)c4)cc32)cc(OC)c1OC,–
5.51,5.31,5.59,COc1cc(-n2nnc3ccc(-c4ccc(C(C)=O)cc4)cc32)cc(OC)c1OC,–
< 5.00,< 5.00,5.32,COc1cc(-c2ccc3nnn(-c4cc(OC)c(OC)c(OC)c4)c3c2)cc(OC)c1OC,–
5.08,5.20,5.02,COc1cc(-n2nnc3ccc(-c4ccccc4Cl)cc32)cc(OC)c1OC,–
5.42,5.18,5.71,COc1cc(-n2nnc3ccc(-c4cccc([N+](=O)[O-])c4)cc32)cc(OC)c1OC,–
5.47,5.18,5.30,COc1cc(-n2nnc3ccc(-c4ccc(C(F)(F)F)cc4)cc32)cc(OC)c1OC,–
5.89,5.37,5.29,COc1cc(-n2nnc3ccc(-c4ccc(O)cc4)cc32)cc(OC)c1OC,–

Compound,pIC50 (MCF7 [1]),pIC50 (SGC-7901),pIC50 (A549),further results
COc1cc2c(c(OC)c1OC)-c1ccc(OC)c(=O)cc1[C@@H](NC(C)=O)CC2 [COLCHICINE],7.52,7.92,–,Activity (MCF7 [2]): 37.19%; Activity (MCF7 [3]): 8.87%; Activity (MCF7 [4]): 24.77%; Activity (MCF7 [5]): 28.2%; Activity (MCF7 [6]): 35.05%; Activity (MCF7 [7]): 63.44%
